From US20170226507A1, “COORDINATE CONTROL OF PATHOGENIC SIGNALING BY THE MIR-130/301 FAMILY IN PULMONARY HYPERTENSION AND FIBROPROLIFERATIVE DISEASES” (The Brigham and Women's Hospital, Inc., priority 2014, published 2017)

Tested on: PAAFs
Experiment: PAAFs in soft or stiff matrix: fibrotic gene expression, immunoblot, collagen secretion
Type: cell-based, human
Conditions: PAAFs
Experimental: Cell Culture and Reagents: Primary human pulmonary arterial adventitial fibroblast cells (PAAFs) were purchased and propagated in FGM cell culture media (Lonza). Experiments were performed at passages 3 to 6. Primary human pulmonary fibroblast cells (PFs) were purchased and propagated in FGM cell culture media (Lonza). Primary human pulmonary arterial endothelial cells (PAECs) were purchased and propagated in EGM-2 cell culture media (Lonza). Experiments were performed at passages 3 to 6. Primary human pulmonary arterial smooth muscle cells (PASMCs) were purchased and propagated in SmGM-2 cell culture media (Lonza). Experiments were performed at passages 3 to 9. HEK293T cells (American Type Culture Collection) were used and cultivated in DMEM containing 10% fetal bovine serum (FBS). Cells were propagated in coated collagen plastic (50 ug/mL) at 37° C. in a humidified 5% CO2 atmosphere. Collagen-coated hydrogel were purchased.
3D cell culture: Protocol was adapted from previously published protocol (Aragona M et al, 2013 Cell). Cells were embedded in a mixture of Growth Factor Reduced Matrigel (BD Biosciences) and Collagen-I (BD Biosciencres). Collagen-I solution was neutralized on ice with 0.1M NaOH in PBS and adjusted with 0.1N HCl to bring the pH of the solution to 7.5. The Collagen-I solution was then mixed on ice with Matrigel to obtain a final concentration of 1.2 mg/ml (soft matrices) or 3 mg/ml (stiff matrices). Cells were trypsinized, counted, resuspended in growth medium; then, 1 volume of cells was mixed with 1 volume of the ECM mix. 6-well plated were precoated with 1 ml of cellfree 50% medium/50% ECM, and left in the incubator until gelled; then, cells were seeded in drop on top of the pregelled ECM. After gelling, wells were supplemented with normal growth medium, which was changed every 2 days during the experiments.
Oligonucleotides and Transfection: Pre-miRNA oligonucleotides (pre-miR-130a, negative control pre-miR-NC1 and premiR-NC2) and custom designed tiny LNA oligonucleotides (tiny-130: 5′-[…]-3′ (SEQ ID NO: 52), and tiny-NC 5′-[…]-3′ (SEQ ID NO: 54)) were purchased from Life Technologies/Ambion and Exiqon, respectively. siRNAs for PPARγ and OCT4/POU5F1 were purchased from Santa Cruz Biotechnology. siRNA for TIMP2 was purchased from Life Technologies. On Target Plus siRNAs for YAP1, TAZ (WWTR1), LRP8 and scrambled control were purchased from ThermoScientific/Dhermacon. PAAF, PF, PAEC and PASMC were plated in collagen-coated dish (50 ug/mL) and transfected 24 h later at 70-80% confluence using pre-miRNA (5 nM), tiny-LNA (20 nM) or siRNA (25 nM) and Lipofectamine 2000 reagent (Life Technologies), according to the manufacturers' instructions. 8 hours after transfection cells were trypsinized and re-plated in the different hydrogel/3D-matrix.
Primary human pulmonary arterial adventitial fibroblast cells (PAAFs) were purchased (ScienCell Research Laboratories) and grown in FGM cell culture media (Lonza). Experiments were performed at passages 3 to 6. Primary human pulmonary arterial endothelial cells (PAECs) were grown in EGM-2 cell culture media (Lonza), and experiments were performed at passages 3 to 6. Primary human pulmonary arterial smooth muscle cells (PASMCs) were cultured in SmGM-2 cell culture media (Lonza), and experiments were performed at passages 3 to 9. HEK293T cells (American Type Culture Collection) were cultivated in DMEM containing 10% fetal bovine serum (FBS). […]

Substance: tiny-LNA-130: fully LNA-modified tiny LNA oligonucleotide 5′-ATTGCACT-3′ (SEQ ID NO: 3) complementary to the seed region of the miR-130/301 family (all LNA, backbone and methylation of C not given here)
- collagen content of conditioned media (collagen secretion): decreased
- ApoE (immunoblot, tiny-LNA-130 in stiff conditions): increased
- collagen transcripts, LOX and CTGF (mimic in soft matrix, tiny-LNA-130 in high ECM stiffness): decreased
